Assay results published in ChEMBL document CHEMBL6153156, “Potential of Histone Deacetylase 6 Inhibitors as a Treatment of Neurodegenerative Diseases” (ACS Med Chem Lett, 2025).

Target: T1, Protein deacetylase HDAC6 (Homo sapiens) (UniProt Q9UBN7)
T1 sequence (whole entry): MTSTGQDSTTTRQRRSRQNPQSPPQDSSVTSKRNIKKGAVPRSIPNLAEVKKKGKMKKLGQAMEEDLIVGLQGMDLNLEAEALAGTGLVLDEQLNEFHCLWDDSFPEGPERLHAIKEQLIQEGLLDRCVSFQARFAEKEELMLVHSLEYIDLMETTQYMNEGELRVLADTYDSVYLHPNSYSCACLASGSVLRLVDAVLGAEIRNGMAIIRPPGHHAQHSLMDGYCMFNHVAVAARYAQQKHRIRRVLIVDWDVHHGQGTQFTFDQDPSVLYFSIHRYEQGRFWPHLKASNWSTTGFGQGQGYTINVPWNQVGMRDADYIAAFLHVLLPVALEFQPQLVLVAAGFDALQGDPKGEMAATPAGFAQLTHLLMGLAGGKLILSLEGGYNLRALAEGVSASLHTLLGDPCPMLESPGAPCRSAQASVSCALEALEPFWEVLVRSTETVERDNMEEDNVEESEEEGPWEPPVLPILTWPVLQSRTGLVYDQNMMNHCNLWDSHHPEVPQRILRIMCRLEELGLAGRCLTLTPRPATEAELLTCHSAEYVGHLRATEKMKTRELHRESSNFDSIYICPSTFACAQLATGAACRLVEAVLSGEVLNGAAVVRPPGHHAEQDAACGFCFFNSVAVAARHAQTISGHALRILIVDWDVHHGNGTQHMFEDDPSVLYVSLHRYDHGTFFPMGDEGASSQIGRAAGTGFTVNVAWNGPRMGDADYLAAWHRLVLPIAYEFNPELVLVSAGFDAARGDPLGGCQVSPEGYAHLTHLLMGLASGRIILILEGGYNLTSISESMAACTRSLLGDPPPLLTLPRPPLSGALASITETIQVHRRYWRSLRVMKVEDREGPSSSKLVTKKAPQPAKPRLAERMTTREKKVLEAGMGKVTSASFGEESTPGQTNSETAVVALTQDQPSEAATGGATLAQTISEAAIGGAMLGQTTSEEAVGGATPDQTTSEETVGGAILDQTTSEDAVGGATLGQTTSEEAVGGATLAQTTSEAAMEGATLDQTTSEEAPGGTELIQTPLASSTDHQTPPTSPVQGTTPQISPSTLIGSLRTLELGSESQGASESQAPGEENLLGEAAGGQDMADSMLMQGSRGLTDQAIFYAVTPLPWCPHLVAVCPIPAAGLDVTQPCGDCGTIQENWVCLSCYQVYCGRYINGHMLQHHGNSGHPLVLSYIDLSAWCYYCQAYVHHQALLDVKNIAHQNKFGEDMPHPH
Experiment: Inhibition of full length HDAC6 (unknown origin) extracted from Sf9 insect cells at 10 uM preincubated for 60 mins followed by substrate addition and measured after 20 mins by luminescence based HDAC-GloTM I/II assay relative to control
Assay type: cell-free
Conditions: time 80.0 min

| SMILES | inhibition [%] |
| --- | --- |
| O=C1c2cc(-c3nnc(C(F)F)o3)ccc2CN1[C@H](c1ccccn1)[C@@H](O)c1ccccn1 | 101 |
| O=C1c2cc(-c3nnc(C(F)F)o3)ccc2CN1[C@H](c1ccc(F)c(F)c1)[C@@H](O)c1ccccn1 | 99 |
| O=C1c2cc(-c3nnc(C(F)F)o3)ccc2CN1[C@@H](c1ccccn1)[C@H](O)c1ccccn1 | 100 |
| O=C1c2cc(-c3nnc(C(F)F)o3)ccc2CN1[C@H](c1cccnn1)[C@@H](O)c1cccc(Cl)c1 | 101 |
| O=C1c2cc(-c3nnc(C(F)F)o3)ccc2CN1[C@H](C1CC1)[C@@H](O)c1ncccn1 | 96 |
| O=C1c2cc(-c3nnc(C(F)F)o3)ccc2CN1[C@H](C1CC1)[C@@H](O)c1ccccn1 | 100 |
| O=C1c2cc(-c3nnc(C(F)F)o3)ccc2CN1[C@H](c1ccccn1)[C@@H](O)c1ccc(C(F)(F)F)cn1 | 99 |
| O=C1c2cc(-c3nnc(C(F)F)o3)ccc2CN1[C@H](c1cccc(F)c1)[C@@H](O)c1ccccn1 (racemic) | 100 |
| O=C1c2cc(-c3nnc(C(F)F)o3)ccc2CN1[C@H](c1cnccn1)[C@@H](O)c1cccc(Cl)c1 | 100 |

Now from value to compound:

| inhibition [%] | SMILES |
| --- | --- |
| 100 | O=C1c2cc(-c3nnc(C(F)F)o3)ccc2CN1[C@H](C1CC1)[C@@H](O)c1ccc(F)cn1 |
| 100 | O=C1c2cc(-c3nnc(C(F)F)o3)ccc2CN1[C@H](C1CCC(F)(F)CC1)[C@@H](O)c1ccc(F)nc1 (racemic) |
| 99 | O=C1c2cc(-c3nnc(C(F)F)o3)ccc2CN1[C@H](c1ccc(F)cc1)[C@@H](O)c1ccc(F)nc1 |
| 99 | O=C1c2cc(-c3nnc(C(F)F)o3)ccc2CN1[C@H](c1ccc(F)cc1)[C@@H](O)C1CCOCC1 (racemic) |
| 100 | O=C1c2cc(-c3nnc(C(F)F)o3)ccc2CN1[C@H](C1CC1)[C@@H](O)c1cccc(F)c1 |
